Assay results: patent US8791132B2, “Compounds and methods for treatment of hypertension” (Medivation Technologies, Inc., priority 2011, dated 2014)
Where “and” joins values, the source holds several entries; their conditions need not be identical. Equal entries are not always repeated. Where two headings read alike, the source gives them in different places. Blank lines part the entries; values can stand above or below the compound they belong to.

Legend:
[1] = target: T1, human recombinant adrenergic α2B receptor (Homo sapiens, UniProt P18089); assay: Radioligand binding, adrenergic α2B ([3H]Rauwolscine); conditions: for Ki: read-out: Ki α2B; for Percentage inhibition of ligand binding, Adrenergic α2B / Percentage inhibition of ligand binding, Adrenergic α2B (0.03 μM): 0.03 µM
T1 construct: expressed in transfected cells; host or cells: CHO-K1
T1 sequence (P18089 1-450): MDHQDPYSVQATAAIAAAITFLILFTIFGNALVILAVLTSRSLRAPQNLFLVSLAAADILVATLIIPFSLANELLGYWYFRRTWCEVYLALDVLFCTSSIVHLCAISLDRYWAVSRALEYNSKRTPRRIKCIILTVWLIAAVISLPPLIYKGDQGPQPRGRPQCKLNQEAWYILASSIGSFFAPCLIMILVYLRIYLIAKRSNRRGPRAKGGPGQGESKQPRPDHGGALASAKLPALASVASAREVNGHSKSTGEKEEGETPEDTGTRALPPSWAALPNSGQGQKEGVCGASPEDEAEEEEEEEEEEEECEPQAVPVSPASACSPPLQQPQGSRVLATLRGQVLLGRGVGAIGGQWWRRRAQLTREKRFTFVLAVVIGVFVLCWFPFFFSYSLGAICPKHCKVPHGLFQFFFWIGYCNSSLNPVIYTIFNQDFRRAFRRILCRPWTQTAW
How it was run: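 Receptor expressed in CHO-K1 cells, assayed in 50 mM Tris-HCl pH 7.4 with 12.5 mM MgCl2, 1 mM EDTA and 0.2% BSA. Compounds were incubated with 2.5 nM [3H]Rauwolscine for 60 min at 25° C; 10 μM Prazosin defined non-specific binding. Filter counting gave percent inhibition of specific binding.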

[2] = target: T2, human recombinant adrenergic α2A receptor (Homo sapiens, UniProt P08913); assay: Radioligand binding, adrenergic α2A ([3H]MK-912); conditions: for Percentage inhibition of ligand binding, Adrenergic α2A / Percentage inhibition of ligand binding, Adrenergic α2A (0.1 μM): 0.1 µM
T2 construct: expressed in transfected cells; host or cells: insect Sf9 cells
T2 sequence (P08913 1-465): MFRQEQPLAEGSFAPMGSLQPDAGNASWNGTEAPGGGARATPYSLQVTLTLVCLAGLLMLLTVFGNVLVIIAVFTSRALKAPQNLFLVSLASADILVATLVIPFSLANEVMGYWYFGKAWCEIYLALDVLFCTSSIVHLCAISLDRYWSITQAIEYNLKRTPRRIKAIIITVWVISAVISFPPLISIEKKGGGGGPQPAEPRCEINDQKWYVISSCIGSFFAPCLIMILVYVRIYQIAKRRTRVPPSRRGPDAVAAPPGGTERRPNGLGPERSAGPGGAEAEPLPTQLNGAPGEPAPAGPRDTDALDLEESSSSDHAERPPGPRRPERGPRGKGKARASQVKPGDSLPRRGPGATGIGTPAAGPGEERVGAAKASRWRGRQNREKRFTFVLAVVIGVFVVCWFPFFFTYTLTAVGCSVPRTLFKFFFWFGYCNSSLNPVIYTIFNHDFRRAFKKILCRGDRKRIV
How it was run: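 In 50 mM Tris-HCl (pH 7.4) containing 12.5 mM MgCl2 and 2 mM EDTA, Sf9-expressed receptor was exposed to test compound plus 1 nM [3H]MK-912 at 25 °C for 60 min. Specific binding, corrected using 10 μM WB-4101, was quantified by filtration and counting and expressed as percent inhibition.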

[3] = target: T3, rat adrenergic α1B receptor (Rattus norvegicus, UniProt P15823); assay: Radioligand binding, adrenergic α1B ([3H]Prazosin); conditions: for inhibition at 0.03 µM: read-out: Percentage inhibition of ligand binding, Adrenergic α1B (0.03 μM), compound at 0.03 μM; for Percentage inhibition of ligand binding, Adrenergic α1B (0.1 μM) / Percentage inhibition of ligand binding, Adrenergic α1B: 0.1 µM
T3 construct: rat adrenergic α1B receptor obtained from Wistar Rat liver; from tissue; host or cells: Wistar rat liver
T3 sequence (P15823 1-515): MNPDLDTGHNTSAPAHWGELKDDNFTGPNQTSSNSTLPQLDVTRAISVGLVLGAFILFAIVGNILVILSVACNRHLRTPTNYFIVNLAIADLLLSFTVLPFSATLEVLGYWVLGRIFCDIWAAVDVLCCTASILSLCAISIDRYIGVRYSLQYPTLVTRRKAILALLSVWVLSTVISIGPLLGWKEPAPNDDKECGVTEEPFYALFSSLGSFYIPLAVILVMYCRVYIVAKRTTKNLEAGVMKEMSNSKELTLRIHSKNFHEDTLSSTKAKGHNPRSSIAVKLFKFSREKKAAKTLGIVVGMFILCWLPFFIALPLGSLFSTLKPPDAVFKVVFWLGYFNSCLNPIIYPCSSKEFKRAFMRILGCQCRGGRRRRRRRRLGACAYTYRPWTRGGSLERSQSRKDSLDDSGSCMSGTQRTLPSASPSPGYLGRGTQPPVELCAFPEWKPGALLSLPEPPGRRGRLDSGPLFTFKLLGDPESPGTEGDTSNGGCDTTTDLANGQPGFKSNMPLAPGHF
How it was run: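 Incubation ran 60 min at 25 °C in Tris-HCl buffer (50 mM, pH 7.4, 0.5 mM EDTA) with Wistar rat liver α1B receptor. 10 μM phentolamine set non-specific binding.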

[4] = read-out: Percentage inhibition of ligand binding, Adrenergic α2B (0.03 μM), compound at 0.03 μM, [3H]Rauwolscine, repeat datapoints each shown
[5] = compound at 0.1 μM, [3H]Prazosin, repeat datapoints each shown
[6] = [3H]Prazosin, repeat datapoints each shown
[7] = read-out: Percentage inhibition of ligand binding, Adrenergic α1B (0.1 μM), compound at 0.1 μM, [3H]Prazosin, repeat datapoints each shown
[8] = compound at 0.03 μM, [3H]Rauwolscine, repeat assays, each datapoint shown
[9] = compound at 0.1 μM, [3H]MK-912, repeat assays, each datapoint shown
[10] = compound at 0.1 μM, [3H]Prazosin, repeat assays, each datapoint shown
[11] = compound at 0.03 μM, [3H]Rauwolscine, repeat datapoints each shown
[12] = read-out: Percentage inhibition of ligand binding, Adrenergic α2A (0.1 μM), compound at 0.1 μM, [3H]MK-912, repeat datapoints each shown
[13] = compound at 0.1 μM, [3H]MK-912, repeat datapoints each shown
[14] = 0.03 μM compound, read-out: Percentage inhibition of ligand binding, Adrenergic α2B
[15] = 0.1 μM compound, read-out: Percentage inhibition of ligand binding, Adrenergic α2A
[16] = 0.1 μM compound, read-out: Percentage inhibition of ligand binding, Adrenergic α1B

Ki [1]: 0.77 nM
inhibition at 0.03 µM [1, 4]: 100%
Ki [2]: 88.6 nM
Percentage inhibition of ligand binding, Adrenergic α1B (0.1 μM) [3, 5]: 96%
inhibition at 0.03 µM [3, 6]: 86%
inhibition at 0.1 µM [3, 7]: 94%
SMILES: Cc1ccc2c(c1)c1c(n2CC(O)c2ccncc2)CCN2CCCC12 (single isomer, unassigned) [129c]

Percentage inhibition of ligand binding, Adrenergic α2B [1, 8]: 36%
Percentage inhibition of ligand binding, Adrenergic α2A [2, 9]: 28%
Percentage inhibition of ligand binding, Adrenergic α1B [3, 10]: 94%
SMILES: COc1ccc(C(O)Cn2c3c(c4cc(C)ccc42)CCN(C)C3)cc1 (single isomer, unassigned) [20b, 2-(2,6-dimethyl-1,2,3,4-tetrahydro-β-carbolin-9-yl)-1-(4-methoxy-phenyl)-ethanol]

Percentage inhibition of ligand binding, Adrenergic α2B (0.03 μM) [1, 11]: 69% and 73%
Ki [1]: 4.42 nM
inhibition at 0.1 µM ([1]; read-out: Percentage inhibition of ligand binding, Adrenergic α2B (0.1 μM), compound at 0.1 μM, [3H]Rauwolscine, repeat datapoints each shown): 90%
inhibition at 0.1 µM [2, 12]: 11%
Percentage inhibition of ligand binding, Adrenergic α1B (0.1 μM) [3, 5]: 11%
SMILES: CC(O)(Cn1c2c(c3cc(Cl)ccc31)CNCC2)c1cccnc1 (single isomer, unassigned) [175a]

Percentage inhibition of ligand binding, Adrenergic α2B (0.03 μM) [1, 11]: 63% and 102%
Ki [1]: 1.14 nM
Ki [2]: 90.5 nM
Percentage inhibition of ligand binding, Adrenergic α2A (0.1 μM) [2, 13]: 25% and 36%
inhibition at 0.03 µM ([2]; read-out: Percentage inhibition of ligand binding, Adrenergic α2A (0.03 μM), compound at 0.03 μM, [3H]MK-912, repeat datapoints each shown): 14%
Percentage inhibition of ligand binding, Adrenergic α1B (0.1 μM) [3, 5]: 37%
inhibition at 0.03 µM [3, 6]: 13%
SMILES: Cc1ccc(C(C)(O)Cn2c3c(c4cc(Cl)ccc42)CN(C)CC3)cn1 (single isomer, unassigned) [93a]

Percentage inhibition of ligand binding, Adrenergic α2B [1, 8]: 21%
Percentage inhibition of ligand binding, Adrenergic α2A [2, 9]: 11%
Percentage inhibition of ligand binding, Adrenergic α1B [3, 10]: 8%
SMILES: COc1ccc(C(O)Cn2c3c(c4cc(C)ccc42)CN(C)CC3)cn1 (single isomer, unassigned) [51a, 2-(2,8-dimethyl-1,2,3,4-tetrahydro-pyrido[4,3-b]indol-5-yl)-1-(6-methoxy-pyridin-3-yl)-ethanol]

inhibition at 0.03 µM [1, 4]: 30%
inhibition at 0.1 µM [2, 12]: 5%
inhibition at 0.1 µM [3, 7]: 14%
SMILES: Cc1ccc2c(c1CO)c1c(n2CC(O)c2ccncc2)CCN(C)C1 (stereo not drawn) [II-150, 2-(9-(hydroxymethyl)-2,8-dimethyl-3,4-dihydro-1H-pyrido[4,3-b]indol-5(2H)-yl)-1-(pyridin-4-yl)ethanol]

inhibition at 0.03 µM [1, 14]: 102%
inhibition at 0.1 µM [2, 15]: 60%
inhibition at 0.1 µM [3, 16]: 16%
SMILES: CCCCCCC(=O)OC(Cn1c2c(c3cc(C)ccc31)CN(C)CC2)c1ccncc1 (stereo not drawn) [compound 338, heptanoic acid 2-(2,8-dimethyl-1,2,3,4-tetrahydro-pyrido[4,3-b]indol-5-yl)-1-pyridin-4-yl-ethyl ester]

Percentage inhibition of ligand binding, Adrenergic α2B (0.03 μM) [1, 11]: 66%
Percentage inhibition of ligand binding, Adrenergic α2A (0.1 μM) [2, 13]: 15%
Percentage inhibition of ligand binding, Adrenergic α1B (0.1 μM) [3, 5]: 20%
SMILES: CC1Cc2c(c3cc(Cl)ccc3n2CC(C)(O)c2cccnc2)CN1C (single isomer, unassigned) [II-147b, 1-(8-chloro-2,3-dimethyl-3,4-dihydro-1H-pyrido[4,3-b]indol-5(2H)-yl)-2-(pyridin-3-yl)propan-2-ol]

inhibition at 0.03 µM [1, 14]: 21%
inhibition at 0.1 µM [2, 15]: 10%
inhibition at 0.1 µM [3, 16]: 3%
SMILES: CC(O)(Cn1c2c(c3cc(CO)ccc31)CNCC2)c1cccnc1 (stereo not drawn) [II-104]

inhibition at 0.03 µM [1, 4]: 22%
inhibition at 0.1 µM [2, 12]: 1%
inhibition at 0.1 µM [3, 7]: -2%
SMILES: Cc1ccc2c(c1)c1c(n2CC(CC(=O)N(C)C)c2ccncc2)CCN(C)C1 (stereo not drawn) [II-230, 4-(2,8-dimethyl-1,2,3,4-tetrahydro-pyrido[4,3-b]indol-5-yl)-N,N-dimethyl-3-pyridin-4-yl-butyramide]

Percentage inhibition of ligand binding, Adrenergic α2B [1, 8]: 102%
Percentage inhibition of ligand binding, Adrenergic α2A [2, 9]: 49%
Percentage inhibition of ligand binding, Adrenergic α1B [3, 10]: 26%
SMILES: Cc1ccc2c(c1)c1c(n2CC(O)c2ccncc2)CC2CCCCN2C1 (racemic) [75d]

Percentage inhibition of ligand binding, Adrenergic α2B (0.03 μM) [1, 11]: 86%
Percentage inhibition of ligand binding, Adrenergic α2A (0.1 μM) [2, 13]: 15%
Percentage inhibition of ligand binding, Adrenergic α1B (0.1 μM) [3, 5]: 25%
SMILES: Cc1ccc2c(c1)c1c(n2CC(CC(O)C(C)(C)C)c2ccncc2)CCN(C)C1 (single isomer, unassigned) [II-227a, 6-(2,8-dimethyl-1,2,3,4-tetrahydro-pyrido[4,3-b]indol-5-yl)-2,2-dimethyl-5-pyridin-4-yl-hexan-3-ol]

Percentage inhibition of ligand binding, Adrenergic α2B [1, 8]: 50%
Percentage inhibition of ligand binding, Adrenergic α2A [2, 9]: 8%
Percentage inhibition of ligand binding, Adrenergic α1B [3, 10]: 50%
SMILES: CN1CCc2c(n(CC(O)c3ccncc3)c3ccc(Cl)cc23)C1 (single isomer, unassigned) [41b]

inhibition at 0.03 µM [1, 4]: 0%
inhibition at 0.1 µM [2, 12]: 10%
inhibition at 0.1 µM [3, 7]: -1%
SMILES: Cc1ccc2c(c1)c1c(n2CC(CN)c2ccncc2)CCN(C)C1 (stereo not drawn) [II-221]

inhibition at 0.03 µM [1, 14]: 25%
inhibition at 0.1 µM [2, 15]: 0%
inhibition at 0.1 µM [3, 16]: 13%
SMILES: Cc1ccc2c(c1)c1c(n2CC(O)c2ccc(O)nc2)CCN(C)C1 (stereo not drawn) [II-92, 5-(2-(1,2,3,4-tetrahydro-2,8-dimethylpyrido[4,3-b]indol-5-yl)-1-hydroxyethyl)pyridin-2(1H)-one]

Percentage inhibition of ligand binding, Adrenergic α2B [1, 8]: 67%
Percentage inhibition of ligand binding, Adrenergic α2A [2, 9]: 7%
Percentage inhibition of ligand binding, Adrenergic α1B [3, 10]: 57%
SMILES: Cc1cnc2c(c1)c1c(n2CC(O)c2ccncc2)CCN(C)C1 (single isomer, unassigned) [55b, 2-(3,6-dimethyl-5,6,7,8-tetrahydro-1,6,9-triaza-fluoren-9-yl)-1-pyridin-4-yl-ethanol]

inhibition at 0.03 µM ([1]; compound at 0.03 μM, [3H]Rauwolscine, repeat assays, each datapoint shown, read-out: Percentage inhibition of ligand binding, Adrenergic α2B): 14%
inhibition at 0.1 µM ([2]; compound at 0.1 μM, [3H]MK-912, repeat assays, each datapoint shown, read-out: Percentage inhibition of ligand binding, Adrenergic α2A): -6%
inhibition at 0.1 µM ([3]; compound at 0.1 μM, [3H]Prazosin, repeat assays, each datapoint shown, read-out: Percentage inhibition of ligand binding, Adrenergic α1B): 25%
SMILES: Cc1ccc2c(c1)c1c(n2CC(C)(O)c2cccnc2)CN(C)CC1 (stereo not drawn) [14b, 1-(2,6-dimethyl-1,2,3,4-tetrahydro-β-carbolin-9-yl)-2-pyridin-3-yl-propan-2-ol]
